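Each compound was tested at five concentrations against cells in 96-well plates for 48 hours. GI50 = concentration required for 50% inhibition of growth. TGI: total growth inhibition.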
How the values were obtained:
Assay in all cases: inhibition of tumour cell growth, NCI panel, 48 h
MALME-3M melanoma = test system: MALME-3M melanoma
HOP-92 NSCLC = test system: HOP-92 NSCLC
RPMI-8226 leukemia = test system: RPMI-8226 leukemia
OVCAR-8 ovarian = test system: OVCAR-8 ovarian
SK-MEL-5 melanoma = test system: SK-MEL-5 melanoma
M14 melanoma = test system: M14 melanoma
KM12 colon = test system: KM12 colon
UACC-62 melanoma = test system: UACC-62 melanoma
LOX IMVI melanoma = test system: LOX IMVI melanoma
SR leukemia = test system: SR leukemia

| SMILES | TGI (MALME-3M melanoma) [µM] | TGI (HOP-92 NSCLC) [µM] | TGI (RPMI-8226 leukemia) [µM] | TGI (OVCAR-8 ovarian) [µM] | TGI (SK-MEL-5 melanoma) [µM] | TGI (M14 melanoma) [µM] | TGI (KM12 colon) [µM] | TGI (UACC-62 melanoma) [µM] | TGI (LOX IMVI melanoma) [µM] | TGI (SR leukemia) [µM] | GI50 (MALME-3M melanoma) [µM] | GI50 (HOP-92 NSCLC) [µM] | GI50 (RPMI-8226 leukemia) [µM] | GI50 (OVCAR-8 ovarian) [µM] | GI50 (SK-MEL-5 melanoma) [µM] | GI50 (M14 melanoma) [µM] | GI50 (KM12 colon) [µM] | GI50 (UACC-62 melanoma) [µM] | GI50 (LOX IMVI melanoma) [µM] | GI50 (SR leukemia) [µM] |
| --- | --- | --- | --- | --- | --- | --- | --- | --- | --- | --- | --- | --- | --- | --- | --- | --- | --- | --- | --- | --- |
| O=C(CC(O)c1cccnc1)CC(O)c1cccnc1 (stereo not given) | 39.9 | 34.5 | > 100 | 35.7 | 32.2 | 27.8 | 26.7 | 32.2 | 15.4 | > 100 |  |  |  |  |  |  |  |  |  |  |
| CC(/C=C/C=C\C=C\C=C(/C)C(=O)NC(C)CO)=C\C(C)C(O)/C(C)=C/C(C)CCc1ccccc1 (stereo not given) | 22.3 | 13.5 | > 78.6 | 25 | 15.5 | 23 | 19.1 | 25.6 | 16.5 | > 59 |  |  |  |  |  |  |  |  |  |  |
| S=P(C1CCCCC1)(C1CCCCC1)C(c1cccnc1)N1CCCC1 (stereo not given) | 39.9 | 42.7 | 38.3 | 51.7 | 31.9 | 34.6 | 33.4 | 52.5 | 23.6 | 44.7 |  |  |  |  |  |  |  |  |  |  |
| O=c1[nH]ccc2nc(N3CCC(O)CC3)nc(Nc3ccc(N4CCOCC4)cc3)c12 | > 63 | 5.02 | > 100 | > 100 | > 50.8 | > 100 | > 100 | > 100 | > 100 | > 100 | 1.61 | 0.566 | > 100 | > 100 | 3.69 | 0.351 | 0.055 | 20.5 | 1.38 | 3.14 |
| CC[C@]12C=CCN3CC[C@@]4(c5ccc(OC)cc5N(C)[C@H]4[C@@](O)(C(=O)OC)[C@@H]1OC(=O)CCCC[P+](c1ccccc1)(c1ccccc1)c1ccccc1)[C@@H]32 | 1.35 | 1.35 | 2.11 | 9.92 | 3.08 | 4.13 | 1.85 | 1.54 | 9.03 | 4.14 | 0.319 | 0.238 | 0.332 | 2.23 | 1.69 | 1.45 | 0.44 | 0.374 | 1.11 | 0.446 |
| OCCNC(=S)Nc1ccc(-c2nc(N3C[C@H]4CC[C@@H](C3)O4)c3cccn3n2)cc1 | 0.055 | 0.161 | 1.47 | 3.16 | 0.642 | 5.93 | 12.6 | 0.194 | 7.65 | > 38 | < 0.01 | < 0.0133 | 0.0371 | 0.173 | 0.0668 | 0.0654 | 0.0987 | 0.018 | 0.202 | 0.082 |
| Nc1c(C(=O)c2cccc(C(O)(CO)CO)c2)cnn1-c1ccc(F)cc1 | > 25 | > 25 | > 25 | > 25 | > 25 | > 25 | > 25 | > 25 | > 25 | > 25 | > 25 | > 25 | > 25 | > 25 | > 25 | > 25 | > 25 | > 25 | > 25 | > 25 |

From PubChem BioAssay (NCI)
